From US8394442B2, “Process for the preparation of a flavoring concentrate, and a flavoring concentrate” (SYMRISE AG, priority 2007, dated 2013)
Read-outs that look alike come from different tables or passages of the source.

Key:
[1] = log Pow: distribution coefficient between 1-octanol and water; conditions: 1-octanol/water
[2] = log Pow* calculated by Formula 2 from log Pow and the polarity parameter P′(x) of the ethanol/water mixture
[3] = solvent ethanol, proportion 10%
[4] = solvent ethanol, proportion 30%
[5] = solvent ethanol, proportion 40%
[6] = solvent ethanol, proportion 50%
[7] = solvent ethanol, proportion 60%
[8] = solvent ethanol, proportion 70%
[9] = solvent ethanol, proportion 80%
[10] = solvent ethanol, proportion 90%
[11] = solvent ethanol, proportion 100%

Molecule | log Pow [1] | log Pow* (P′ 2%) ([2]; solvent ethanol, proportion 2%) | log Pow* (P′ 4%) ([2]; solvent ethanol, proportion 4%) | log Pow* (P′ 6%) ([2]; solvent ethanol, proportion 6%) | log Pow* (P′ 8%) ([2]; solvent ethanol, proportion 8%) | log Pow* (P′ 10%) [2, 3] | log Pow* (P′ 30%) [2, 4] | log Pow* (P′ 40%) [2, 5] | log Pow* (P′ 50%) [2, 6] | log Pow* (P′ 60%) [2, 7] | log Pow* (P′ 70%) [2, 8] | log Pow* (P′ 80%) [2, 9] | log Pow* (P′ 90%) [2, 10] | log Pow* (P′ 100%) [2, 11] | log Pow* (P′ 2%) [2] | log Pow* (P′ 4%) [2] | log Pow* (P′ 6%) [2] | log Pow* (P′ 8%) [2] | log Pow* (P′ 10%) [2] | log Pow* (P′ 30%) [2] | further results
CCCCCC1CCCC(=O)O1 (centres unmarked) [delta decalactone] | 2.42 | 2.34 | 2.26 | 2.19 | 2.12 | 2.05 | 1.52 | 1.33 | 1.17 | 1.03 | 0.92 | 0.81 | 0.72 | 0.64 |  |  |  |  |  |  | 
CC(C)CCO [3-mebutanol, 3-methylbutanol] | 1.28 |  |  |  |  |  |  |  |  |  |  |  |  |  | 1.12 | 0.98 | 0.84 | 0.71 | 0.58 | −0.41 | log Pow* (P′ 40%) [2]: −0.78; log Pow* (P′ 50%) [2]: −1.08; log Pow* (P′ 60%) [2]: −1.34; log Pow* (P′ 70%) [2]: −1.57; log Pow* (P′ 80%) [2]: −1.76; log Pow* (P′ 90%) [2]: −1.93; log Pow* (P′ 100%) [2]: −2.08
CCCCOC(C)=O [Butylacetate] | 1.77 | 1.66 | 1.55 | 1.45 | 1.35 | 1.26 | 0.55 | 0.28 | 0.06 | −0.13 | −0.29 | −0.43 | −0.55 | −0.66 |  |  |  |  |  |  | 
SCc1ccco1 [Furfurylthiol-2] | 1.90 | 1.80 | 1.70 | 1.60 | 1.51 | 1.43 | 0.76 | 0.51 | 0.31 | 0.13 | −0.02 | −0.15 | −0.26 | −0.36 |  |  |  |  |  |  | 
Isopropylmethoxypyrazine | 2.09 | 1.99 | 1.90 | 1.82 | 1.74 | 1.66 | 1.05 | 0.83 | 0.64 | 0.48 | 0.35 | 0.23 | 0.12 | 0.03 |  |  |  |  |  |  | 
CCCC(=O)OCC [Ethylbutyrate] | 1.77 |  |  |  |  |  |  |  |  |  |  |  |  |  | 1.66 | 1.55 | 1.45 | 1.35 | 1.26 | 0.55 | log Pow* (P′ 40%) [2]: 0.28; log Pow* (P′ 50%) [2]: 0.06; log Pow* (P′ 60%) [2]: −0.13; log Pow* (P′ 70%) [2]: −0.29; log Pow* (P′ 80%) [2]: −0.43; log Pow* (P′ 90%) [2]: −0.55; log Pow* (P′ 100%) [2]: −0.66
CC(C)=CCCC(C)=CC=O [Citral] | 3.17 |  |  |  |  |  |  |  |  |  |  |  |  |  | 3.11 | 3.05 | 2.99 | 2.94 | 2.89 | 2.49 | log Pow* (P′ 40%) [2]: 2.34; log Pow* (P′ 50%) [2]: 2.22; log Pow* (P′ 60%) [2]: 2.11; log Pow* (P′ 70%) [2]: 2.02; log Pow* (P′ 80%) [2]: 1.94; log Pow* (P′ 90%) [2]: 1.87; log Pow* (P′ 100%) [2]: 1.81
